{
  "source": "patent US20250134860A1",
  "about": "“NOVEL COMPOUND, AND COMPOSITION FOR PREVENTING, ALLEVIATING OR TREATING BACTERIAL INFLAMMATION AND INFLAMMASOME-MEDIATED DISEASES, COMPRISING SAME AS ACTIVE INGREDIENT” (Quorum Bio Co., Ltd., priority 2022, published 2025)",
  "key": {"[1]": {"tested_on": "E. coli (KCTC 2571 (ATCC 8739))", "test": "Inhibitory effect on E. coli biofilm formation", "format": "cell-based, Escherichia coli", "conditions": "0.006-4.8 μg/ml; 48 hours; compared with control (CT)", "protocol": "The inhibitory effect of the compound of Example 1-2 on biofilm formation in E. coli (KCTC 2571 (ATCC 8739); available from the Korean Collection for Oral Microbiology (KCOM)) was confirmed.\nSterilized cover glass slips (round, 12 mm radius) were placed individually at a bottom of each well of a cell culture plate (24-well plate) using forceps, and the compound of Example 1-2 was diluted in the medium (LB medium) to be cultured with bacteria so that the final concentrations were 0.006 μg/ml, 0.06 μg/ml, 0.6 μg/ml, 1.2 μg/ml, 2.4 μg/ml, and 4.8 μg/ml.\nThe prepared culture medium was dispensed into a cell culture plate in which glass slips were placed, and the bacteria were inoculated to a concentration of 2×10^7 cells/ml. […]\nThe biofilm in which bacteria cultured for each group were formed on glass slips was stained with 1% crystal violet solution for 15 minutes, and then washed three times with PBS (phosphate buffered saline) solution, and decolorized with acetone-alcohol (20:80, vol/vol). After the decolorizing solution containing crystal violet was put in 200 μl increments in a 96-well microplate for each group, the absorbance (OD590nm) was measured using an absorbance microplate reader (Epoch2, Bio-Tek, USA), and the biofilm formation levels were compared."}, "[2]": {"tested_on": "gingipain genes (rgpA, rgpB, kgp)", "test": "Inhibitory effect on gingipain expression of P. gingivalis (RT-qPCR)", "format": "cell-based, Porphyromonas gingivalis", "conditions": "DPD 10 μM + compound 2 μM; 48 hours; normalized to 16s rRNA", "protocol": "The compounds of Examples were respectively treated onto the medium cultured with P. gingivalis, and the expression levels of three gingipain proteins (lysine-gingipain (Kgp), arginine-gingipain A (RgpA), and arginine-gingipain B (RgpB)) produced by P. gingivalis, which are major virulence factors and proteolytic enzymes, were confirmed.\nThe culture medium containing 10 μM of DPD (4,5-dihydroxy-2,3-pentane dione), which is a precursor of the bacterial signal substance (Autoinducer-2), and the culture medium containing 2 μM of the example compound or not were respectively dispensed into a cell culture plate (48 well plate), and then P. gingivalis (2×10^8 cell/ml) were inoculated for each group. The culture medium cultured with bacteria was cultured at 37° C. under anaerobic conditions (10% H2, 10% CO2, and 80% N2) for 48 hours.\nAfter 48 hours, each culture medium was centrifuged at 13,000 rpm for 1 minute to remove the supernatant, and total RNA was extracted using easy-BLUE™ Total RNA Extraction kit (iNtRON Biotechnology, Sungnam, Korea) to synthesize cDNA, and then the expression of the gingipain gene was confirmed by real-time PCR method. cDNA was synthesized using AccuPower® CycleScript RT PreMix dN6 (Bioneer, Daejeon, Korea), and real-time (quantitative) reverse transcription PCR (RT-qPCR) was carried out using Power SYBR™ Green PCR Master Mix (Applied Biosystems, Foster City, CA, USA).\nRT-qPCR amplification conditions were as follows: after enzyme activation at 95° C. for 3 minutes, denaturation at 95° C. for 10 seconds and primer annealing at 60° C. for 30 seconds were repeated 40 times, and analysis was performed using a Bio-Rad CFX Connect Real-Time PCR Detection System (Bio-Rad, Hercules, CA, USA). To normalize the expression level of the gingipain gene, the 16s rRNA gene was used, and the gene expression level was calculated using the Comparative Ct Method (ΔΔCt), which is shown in FIGS. 5a to 5c."}},
  "data": [
    {"smiles": "Cc1ccc(C(=C2c3ccccc3C(=O)N2C)c2ccc(C)cc2)cc1", "note": "[Example 1-2, 3-(di-p-tolylmethylene)-2-methylisoindolin-1-one]", "values": [
      {"measurement": "biofilm formation of E. coli", "setting": "[1]", "value": "significantly suppressed in a concentration-dependent manner"},
      {"measurement": "expression levels of three gingipain genes (rgpA, rgpB, kgp) increased by DPD", "setting": "[2]", "value": "reduced"}
    ]}
  ]
}
